Source: patent US12454531B2, “Substituted piperazine derivatives useful as T cell activators” (BRISTOL-MYERS SQUIBB COMPANY, priority 2019, dated 2025)

Molecular target: DGKα (Homo sapiens (Human), UniProt P23743)
Test: Assay 2: In Vitro DGK Inhibition Assays, Method B (DGKα ADPGLO)
Format: biochemical
Details: 150 μM ATP
Protocol: Assay 2: In Vitro DGK Inhibition Assays—Method B
The DGKα and DGKζ reactions were performed using either extruded liposome (DGKα and DGKζ LIPGLO assays) or detergent/lipid micelle substrate (DGKα and DGKζ assays). The reactions were carried out in 50 mM MOPS pH 7.5, 100 mM NaCl, 10 mM MgCl2, 1 μM CaCl2), and 1 mM DTT (assay buffer). The reactions using a detergent/lipid micelle substrate also contained 50 mM octyl B-D-glucopyranoside. The lipid substrate concentrations were 11 mM PS and 1 mM DAG for the detergent/lipid micelle reactions. The lipid substrate concentrations were 2 mM PS, 0.25 mM DAG, and 2.75 mM PC for the extruded liposome reactions (5 mM total lipid). The reactions were carried out in 150 μM ATP. The enzyme concentrations for the DGKα and DGKζ were nM.
The compound inhibition studies were carried out as follows: 25 nL droplets of each test compound (top concentration 10 mM with 11 point, 3-fold dilution series for each compound) solubilized in DMSO were transferred to wells of a white 1536 well plate (Corning 3725). A 5 mL enzyme/lipid substrate solution at 2× final reaction concentration was prepared by combining 2.5 mL 4× enzyme solution (20 nM DGKα or DGKζ (prepared as described below) in assay buffer) and 2.5 mL of either 4× liposome or 4× detergent/lipid micelle solution (compositions described below) and incubated at room temperature for 10 minutes. Next, 1 μL 2× enzyme/lipid substrate solution was added to wells containing the test compound and reactions were initiated with the addition of 1 μL 300 uM ATP. The reactions were allowed to proceed for 2 hr, after which 2 μL Glo Reagent (Promega V9101) was added and incubated for 40 minutes. Next, 4 μL Kinase Detection Reagent was added and incubated for 30 minutes. Luminescence was recorded using an EnVision microplate reader. […] The compounds were evaluated at 11 concentrations to determine IC50.
The detergent/lipid micelle was prepared by combining 15 g phosphatidylserine (Avanti 840035P) and 1 g diacylglycerol (8008110) and dissolving into 150 mL chloroform in a 2 L round bottom flask. Chloroform was removed under high vacuum by rotary evaporation. The resulting colorless, tacky oil was resuspended in 400 mL 50 mM MOPS pH 7.5, 100 mM NaCl, 20 mM NaF, 10 mM MgCl2, 1 μM CaCl2), 1 mM DTT, and 200 mM octyl glucoside by vigorous mixing. The lipid/detergent solution was split into 5 mL aliquots and stored at −80° C.
The lipid composition was 5 mol % DAG (Avanti 8008110), 40 mol % PS (Avanti 840035P), and 55 mol % PC (Avanti 850457) at a total lipid concentration of […] for the liposome solution. The PC, DAG, and PS were dissolved in chloroform, combined, and dried in vacuo to a thin film. The lipids were hydrated to 20 mM in 50 mM MOPS pH 7.5, 100 mM NaCl, 5 mM MgCl2, and were freeze-thawed five times. The lipid suspension was extruded through a 100 nm polycarbonate filter 10-12 times. Dynamic light scattering was carried out to confirm liposome size (50-60 nm radius). The liposome preparation was stored at 4° C. for as long as four weeks.
Human MA-hDGKα-(S9-S727)-Ct-TVMV-His-pFBgate and full length human DGK-ζ-transcript variant-2-TVMV-His-pFBgate baculovirus samples were generated using the Bac-to-Bac baculovirus expression system (Invitrogen) according to the manufacturer's protocol (note: MA- in name of DGKα reagents indicates two extra amino acids added prior to Ser-9). The DNA used for expression of the DGK-α(9-727) and DGK-C have SEQ ID NOs: 5 and 3, respectively. […]

Sequence of DGKα (P23743 other isoform, or with tags, fused parts or gaps): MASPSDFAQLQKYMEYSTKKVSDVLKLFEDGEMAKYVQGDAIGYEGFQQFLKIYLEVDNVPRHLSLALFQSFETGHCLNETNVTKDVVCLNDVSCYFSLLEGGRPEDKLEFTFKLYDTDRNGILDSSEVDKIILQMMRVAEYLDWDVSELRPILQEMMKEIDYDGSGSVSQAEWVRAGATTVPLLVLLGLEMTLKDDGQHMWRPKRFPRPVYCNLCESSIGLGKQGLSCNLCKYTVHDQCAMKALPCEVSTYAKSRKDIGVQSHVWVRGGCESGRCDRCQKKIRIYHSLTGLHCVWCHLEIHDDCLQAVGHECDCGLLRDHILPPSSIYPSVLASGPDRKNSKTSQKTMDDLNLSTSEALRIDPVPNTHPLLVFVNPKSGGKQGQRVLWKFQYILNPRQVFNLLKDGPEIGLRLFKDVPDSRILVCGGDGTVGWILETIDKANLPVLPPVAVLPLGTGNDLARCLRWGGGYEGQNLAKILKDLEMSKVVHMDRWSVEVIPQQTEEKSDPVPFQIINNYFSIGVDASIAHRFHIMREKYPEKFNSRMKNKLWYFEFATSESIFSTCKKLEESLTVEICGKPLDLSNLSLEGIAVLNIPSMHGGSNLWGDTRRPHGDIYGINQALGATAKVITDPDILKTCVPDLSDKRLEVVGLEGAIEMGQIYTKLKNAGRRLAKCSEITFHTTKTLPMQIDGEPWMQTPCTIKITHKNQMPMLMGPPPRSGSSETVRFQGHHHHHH

| IC50 [nM] | SMILES |
| --- | --- |
| 1970 | CC[C@H]1CN(C(C(=O)N2CCOCC2)c2ccc(C(F)(F)F)cc2)[C@H](CC)CN1c1nc(=O)n(C)c2ccc(C#N)nc12 (single isomer, unassigned) [Example 53] |
| 7500 | CC[C@H]1CN(C(C(=O)NCCOC)c2ccc(C(F)(F)F)cc2)[C@H](CC)CN1c1nc(=O)n(C)c2ccc(C#N)nc12 (single isomer, unassigned) [Example 56] |
| 260 | CC[C@H]1CN(C(C(=O)N2CCOCC2)c2ccc(C(F)(F)F)cc2)[C@H](CC)CN1c1nc(=O)n(C)c2ccc(C#N)nc12 (single isomer, unassigned) [Example 54] |
